According to patent US8748105B2, “Method for selecting a candidate drug compound” (Pepscan Systems B.V., priority 2003, dated 2014):
Starred links: 1 amine or outer side, 2 acyl side, 3 side chain; linkers in the order of their positions; H or OH if unused. Positions of bridges follow the written chain, without caps; N, C: chain ends. T2 = dibromobenzene scaffold (1,3-bis(bromomethyl)benzene, m-dibromoxylene) forming thioether links to the two Cys; resin = solid-support resin (cross-linked polystyrene) to which the C-terminal amino acid is attached; mXylylene = c1cc(C[*:1])cc(C[*:2])c1

What was measured:
anti-FSH-β mAb 2 = assay: Loopscan: sandwich ELISA of solid-phase cyclized or linear 12-mer FSH β3-loop peptides; assay type: binding; settings: solid-phase 12-mer peptides; mAb 2 up to 10 μg/mL
Method: FIG. 12: ELISA results of the binding of anti-FSH monoclonal antibody 2 (10 μg/mL) in 3 μL miniwells containing overlapping a) cyclized (with m-dibromoxylene) and b) linear 12-mer peptides of the β3-loop of FSH-beta; Sequence of binding peptide: (AA68-AA79) Ac-CRVPGAAHHADSLC-resin (SEQ ID NO:5).
The formation of peptide loops via reaction of a linear peptide containing two free sulfhydryl groups with 1,3-bis(bromomethyl)benzene scaffold was also carried out on a polypropylene surface grafted with polyacrylic acid (6% solution containing CuSO4, irradiation using γ-radiation at a dose of 12 kGy) and functionalized with amino groups via coupling with t-butyloxycarbonyl-hexamethylene diamine (Boc-HMDA) using dicyclohexylcarbodiimide (DCC) with N-hydroxybenzotriazole (HOBt) and subsequent deprotection of the Boc-groups using trifluoroacetic acid (TFA). Standard Fmoc peptide chemistry was used to synthesize a set of overlapping linear peptides of 14 amino acid long peptides corresponding to the β3-loop of FSH in separate microwells of 3 μL each using our previously developed minicard format. Each peptide was synthesized with a Cys-residue in position 1, followed by the overlapping sequences of the FSH β3-loop (2-13, 3-14, 4-15, etc.) followed by another Cys-residue in the final position. […]

[1] = molecular target: mAb 1 (monoclonal antibody specific for beta-FSH); assay: Binding of beta-FSH mimics (T4 double-loop constructs) to beta-FSH-specific monoclonal antibody mAb 1 (Kd)
From the text: For the inhibition of the specific interaction with beta-FSH and its receptor, there is a need for structural mimics of the hormone. Although there is no crystallographic structure describing the interaction of beta-FSH with its receptor, it is very likely that this binding site is discontinuous in nature. We designed and synthesized a number of double-loop peptide construct on a tetrabromo-(T4)scaffold that could be used as beta-FSH mimics. We used the synthetic strategy for structural fixation of linear peptides as outlined above. We tested the capacity of these small peptide-based beta-FSH mimics to bind to a number of different monoclonal antibodies specific for beta-FSH. […] Furthermore, the beta-FSH mimics can be used successfully for the production of antisera that react specifically with beta-FSH.

[2] = molecular target: mAb 3468 (anti-beta-CG monoclonal antibody); assay: Binding of beta-CG mimics (T4 double-loop constructs) to monoclonal antibody 3468 (Kd)
From the text: For the inhibition of the specific interaction with hCG and its receptor there is a need for compounds which structurally mimic the hormone. […] It is, therefore, likely that binding of beta-CG to the receptor also involves a discontinuous binding on the hormone. Provided is the design and synthesis of small peptide-based beta-CG mimics that strongly bind to monoclonal antibody 3468. We used the synthetic strategy for structural fixation of linear peptides as outline above.
The beta-CG mimics are advantageously used for the production of antisera that react specifically with hCG.

[3] = molecular target: mAb 2 (anti-FSHβ monoclonal antibody); assay: Binding of looped peptide mimics of FSH-β to anti-FSH-β monoclonal antibody mAb 2 (Kd)
From the text: We used the synthetic strategy for structural fixation of linear peptides as outlined above. We tested the capacity of these small peptide-based beta-FSH mimics to bind to a number of different monoclonal antibodies specific for beta-FSH.

In the case of “Ac-CRVPGAAHHADSLC-resin (linker 1-14 via mXylylene (inferred); also: C-terminus resin-bound) [68-79]”, the “binding to anti-FSH-β mAb 2 in sandwich ELISA (in words)” value (anti-FSH-β mAb 2) is reported as “binds strongly”.

Work on “c-T2-[Ac-CRVPGAAHHADSLC-NH2] (linker 1-14 via T2 (inferred)) [compound 1]” yielded a Kd [1] of 270 nM, a Kd [2] of 15000 nM and a Kd [3] of 2500 nM.
